Experimental data taken from the supplement of paper PMC13380429.

How the values were obtained:
Settings in all cases: 72 h
Caco-2 [1] = assay: cell viability relative to DMSO; higher = less toxic
Calu-3 [2] = assay: as above
HepG2 [3] = assay: as above
U2OS [4] = assay: as above
Vero E6 [5] = assay: as above
Caco-2 [6] = assay: relative viability EC50 (midpoint between 100% and the lowest measured viability); higher = less toxic
Calu-3 [7] = assay: as above
HepG2 [8] = assay: as above
U2OS [9] = assay: as above
Vero E6 [10] = assay: as above
Caco-2 [11] = assay: drug sensitivity score (DSS) for viability; higher = more toxic; extreme values may be limits of the assay
Calu-3 [12] = assay: as above
HepG2 [13] = assay: as above
U2OS [14] = assay: as above
Vero E6 [15] = assay: as above

Structure (SMILES) | cell viability (Caco-2 [1]; 1 nM) [%] | cell viability (Caco-2 [1]; 10 nM) [%] | cell viability (Caco-2 [1]; 100 nM) [%] | cell viability (Caco-2 [1]; 1000 nM) [%] | cell viability (Caco-2 [1]; 10000 nM) [%] | cell viability (Calu-3 [2]; 1 nM) [%] | cell viability (Calu-3 [2]; 10 nM) [%] | cell viability (Calu-3 [2]; 100 nM) [%] | cell viability (Calu-3 [2]; 1000 nM) [%] | cell viability (Calu-3 [2]; 10000 nM) [%] | cell viability (HepG2 [3]; 1 nM) [%] | cell viability (HepG2 [3]; 10 nM) [%] | cell viability (HepG2 [3]; 100 nM) [%] | cell viability (HepG2 [3]; 1000 nM) [%] | cell viability (HepG2 [3]; 10000 nM) [%] | cell viability (U2OS [4]; 1 nM) [%] | cell viability (U2OS [4]; 10 nM) [%] | cell viability (U2OS [4]; 100 nM) [%] | cell viability (U2OS [4]; 1000 nM) [%] | cell viability (U2OS [4]; 10000 nM) [%] | cell viability (Vero E6 [5]; 1 nM) [%] | cell viability (Vero E6 [5]; 10 nM) [%] | cell viability (Vero E6 [5]; 100 nM) [%] | cell viability (Vero E6 [5]; 1000 nM) [%] | cell viability (Vero E6 [5]; 10000 nM) [%] | relative viability EC50 (Caco-2 [6]) [µM] | relative viability EC50 (Calu-3 [7]) [µM] | relative viability EC50 (HepG2 [8]) [µM] | relative viability EC50 (U2OS [9]) [µM] | relative viability EC50 (Vero E6 [10]) [µM] | drug sensitivity score (Caco-2 [11]) | drug sensitivity score (Calu-3 [12]) | drug sensitivity score (HepG2 [13]) | drug sensitivity score (U2OS [14]) | drug sensitivity score (Vero E6 [15])
CC(C)[C@H](CO)Nc1nc(Nc2cccc(Cl)c2)c2ncn(C(C)C)c2n1 [purvalanol-A] | 91.6 | 103 | 93.4 | 94.2 | 83.1 | 102 | 109 | 96.5 | 102 | 91.4 | 90.8 | 96.8 | 100 | 94.8 | 87.2 | 97.4 | 105 | 95.5 | 99 | 86.4 | 100 | 97.4 | 93.7 | 95.5 | 77.3 | > 10 | > 10 | > 10 | > 10 | > 10 | 0.4 | 0 | 0.4 | 0.2 | 1.4
CN1[C@@H]2C[C@@H](O)C[C@H]1[C@@H]1O[C@@H]12 [scopine] | 104 | 93 | 96.1 | 98.3 | 105 | 102 | 90.1 | 98.8 | 103 | 103 | 97.2 | 99.7 | 96.7 | 99.8 | 97 | 98.4 | 93.4 | 96.1 | 96 | 102 | 104 | 108 | 106 | 106 | 98.8 | > 10 | > 10 | > 10 | > 10 | > 10 | 0 | 0 | 0 | 0 | 0
CC1(C)O[C@H]2CC(=O)OC[C@]23[C@H]2CC[C@@]4(C)[C@H](c5ccoc5)OC(=O)[C@H]5O[C@]54[C@]2(C)C(=O)C[C@@H]13 [limonin] | 97.5 | 95.8 | 106 | 98.5 | 105 | 104 | 89.5 | 109 | 99.6 | 102 | 102 | 105 | 91.5 | 111 | 97.2 | 95.6 | 98.6 | 107 | 99 | 100 | 97.1 | 97.1 | 93.7 | 98.6 | 104 | > 10 | > 10 | > 10 | > 10 | > 10 | 0 | 0 | 0 | 0 | 0
O=C1c2c(O)cc(O)cc2O[C@H](c2cc(O)c(O)c(O)c2)[C@H]1O [dihydromyricetin] | 102 | 92.3 | 95.6 | 100 | 97.4 | 105 | 98.2 | 93.7 | 111 | 90.3 | 95.8 | 94.5 | 98.5 | 94.7 | 103 | 102 | 95.8 | 103 | 106 | 104 | 96.1 | 96 | 96.4 | 98.4 | 103 | > 10 | > 10 | > 10 | > 10 | > 10 | 0 | 0 | 0 | 0 | 0
Clc1cccc(-c2nnnn2Cc2cccnc2)c1Cl | 97.6 | 104 | 99.1 | 98.4 | 91.1 | 99.9 | 105 | 96.2 | 98.2 | 97.2 | 101 | 97.5 | 105 | 101 | 103 | 97 | 95.9 | 94.2 | 99.3 | 94.9 | 106 | 103 | 104 | 99.2 | 102 | > 10 | > 10 | > 10 | > 10 | > 10 | 0 | 0 | 0 | 0 | 0
COc1cc(N2CCOCC2)ccc1Nc1ncc(Cl)c(Nc2ccccc2NS(C)(=O)=O)n1 | 99.5 | 91.7 | 94.1 | 80.8 | 35.6 | 103 | 84.2 | 84.2 | 59.6 | 19.6 | 103 | 101 | 94.7 | 70.6 | 23.1 | 102 | 97.2 | 98.8 | 75 | 27.4 | 99.1 | 110 | 99.1 | 76.9 | 15.6 | 1.49 | 0.667 | 1.29 | 1.29 | 1.47 | 6.1 | 10.4 | 7.8 | 7.6 | 8.2
